Source: US9708304B2, “Salt polymorph of thioxanthene-9-ylidene-1-methyl piperidine acid addition salts as antimigraine compounds” (BIOFRONTERA BIOSCIENCE GMBH, priority 2013, dated 2017)
Like-named read-outs stand apart in the source and are kept apart here.

Experiment: Comparison of solubilities of sample Id 1 and Id 2 in three different solvents
Format: physicochemical
Method: It has also been confirmed that sample 2 has a higher solubility than the starting material. The starting HCl salt (sample Id 1) and the salt received from the low temperature evaporation (sample Id 2) were dissolved in 3 solvents with different capacities in solubility, namely methanol, 2-propanol and 96% ethanol (see Table 3 below). The solubility of sample Id 1 and sample Id 2 is shown in the rightmost column of Table 3 in mg/ml.

[1] = solvent 2-Propanol, hydrochloride
[2] = solvent Ethanol 96%, hydrochloride
[3] = solvent Methanol, hydrochloride

Structure (SMILES) | Increase in solubility in comparison to the starting material (sample Id 1) (2-propanol) | solubility (2-propanol, organic solvent or mixture, thermodynamic from solid, solvent 2-Propanol, read-out: Solubility) | Increase in solubility in comparison to the starting material (sample Id 1) (96% ethanol) | Solubility compared with starting material (methanol, 2-propanol and 96% ethanol) | Weight-% (dissolved salt in solution) [1] | Weight-% (dissolved salt in solution) [2] | solubility [2] | Weight-% (dissolved salt in solution) [3] | solubility [3] | solubility (96% ethanol, organic solvent or mixture, thermodynamic from solid, solvent Ethanol 96%, read-out: Solubility) | solubility (methanol, organic solvent or mixture, thermodynamic from solid, solvent Methanol, read-out: Solubility) | solubility [1]
CCOc1ccc2c(c1)Sc1cccc(OC)c1C2=C1CCN(C)CC1.Cl [Low. temp. evap. MeOH, 4-(6-ethoxy-1-methoxy-thioxanthene-9-ylidene)-1-methyl piperidine hydrochloride] | about 25% | 5 mg/mL | about 9% | enhanced solubility in all three solvents tested | 0.38% | 4.70% | 62 mg/mL | 12.92% | 171 mg/mL | – | – | –
CCOc1ccc2c(c1)Sc1cccc(OC)c1C2=C1CCN(C)CC1.Cl [Starting Material, 4-(6-ethoxy-1-methoxy-thioxanthene-9-ylidene)-1-methyl piperidine hydrochloride] | – | – | – | – | 0.27% | 4.56% | – | 12.50% | – | 57 mg/mL | 156 mg/mL | 4 mg/mL
